Patent US12139481B2, “Compositions comprising macrocycle derivatives incorporating bridged macrocycles and methods of producing and using same” (Southwestern Oklahoma State University, priority 2015, dated 2024)

Assays:
[1] = system: L. donovani promastigotes; assay: Antileishmanial Alamar Blue assay on promastigotes; assay type: cell-based, Leishmania donovani; details: for X more potent than Pentamidine: L. donovani, ratio of molar IC50 to Pentamidine; for L. donovani IC50 / IC50: promastigotes, 48 hours, Alamar Blue; for IC50: read-out: L. donavani IC50
Outline: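 L. donovani promastigotes in RPMI 1640 with 10% FCS, from 3-day culture, were set at 5×10^5/mL and exposed to compound (50-3.1 μg/mL) for 48 hours at 26° C. Growth read by Alamar Blue fluorescence (ex 544/em 590 nm); IC50 from percent growth versus concentration.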

[2] = system: Plasmodium falciparum W2 clone (Indochina, chloroquine-resistant); assay: In vitro antimalarial assay, chloroquine-resistant W2 clone; assay type: cell-based; details: W2 clone; for IC50: converted with molecular weight, read-out: P. falciparum W2 IC50; for X more potent than chloroquine: molar IC50 ratio versus chloroquine
Procedure: (§1) The compounds were assayed for in vitro antimalarial activity against the W2 clone and D6 clone of the pathogenic Plasmodium falciparum. The strains of P. falciparum were obtained from the Division of Experimental Therapeutics, Walter Reed Army Institute of Research, Washington D.C. Strains of Sierra Leon D6 and Indochina W2 are chloroquine-sensitive and chloroquine-resistant, respectively. The parasite was grown in type A human RBCs and, two strains subcultured daily with fresh medium and blood cells. On the day of the assay, a suspension of infected blood cells (2% parasitemia and 2% hematocrit) was prepared using type A human red blood cells. Assays were performed by standard 96-well flat-bottomed microplate methods and done in duplicate at different concentrations. IC50 values were obtained from the dose curves. Artemisinin and chloroquine were included in each assay as the drug controls, and DMSO was used as vehicle control. The whole protocol was developed based on the published method of Makler. The cytotoxicity assays were also performed in parallel against the Vero cells, and the selectivity index was measured. A selectivity index of >9 was considered to indicate a lead for further development of antimalarial drug.

[3] = system: S. mansoni newly transformed schistosomula (NTS); assay: In vitro testing on Schistosoma mansoni newly transformed schistosomula (NTS), viability score; assay type: cell-based; details: 72 h
Procedure: Assays were prepared according to the laboratory SOP for the lab of Dr. Jennifer Keiser (Swiss Tropical and Public Health Institute, Basel). Harvested S. mansoni cercariae (Liberian strain) obtained from infected Biomphalaria glabrata snails were mechanically transformed into newly transformed schistosomula (NTS) following standard procedures. Briefly, snails were placed under light in the morning to stimulate cercarial shedding. The cercarial suspension was collected, cooled for 30 minutes, and then vigorously pipetted (30×) and vortexed (3 minutes). The suspension was then placed in the incubator (37° C. and 5% CO2) for 30 minutes, and the vortexing and pipetting steps were repeated. The transformation was complete at this point, and the tails were separated from the heads by rinsing three times with cold HBSS. NTS were then incubated overnight in culture medium overnight and used the next day.
The original stock compounds (which were not already dissolved) were dissolved in dimethyl sulfoxide (DMSO) to a concentration of 10 mM. 100 NTS were placed in each well of a 96-well plate with culture medium, and the test compound for a final well volume of 250 μl. […] NTS incubated with no more than 1% DMSO served as control. NTS were kept in an incubator at 37° C. and 5% CO2 for up to 72 hours. After 72 hours, the condition of the NTS was microscopically evaluated using a scale from 3 (normal activity and no tegument alteration) to 0 (dead, completely granulated).

[4] = system: Plasmodium falciparum D6 clone (Sierra Leon, chloroquine-sensitive); assay: In vitro antimalarial assay, chloroquine-sensitive D6 clone; assay type: cell-based; details: D6 clone; for IC50: converted with molecular weight, read-out: P. falciparum D6 IC50; for X more potent than chloroquine: molar IC50 ratio versus chloroquine
Procedure: as §1

[5] = system: C. krusei ATCC 6258; assay: Antifungal broth dilution assay against C. krusei (modified CLSI); assay type: cell-based, Candida krusei; details: for X more potent than Amphotericin B: C. krusei, ratio of molar IC50 to amphotericin B; for C. krusei IC50 / IC50: in vitro; for IC50: read-out: C. krusei IC50 (mol/L)
Outline: (§2)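 Modified CLSI broth microdilution with OD monitoring before and after incubation at 35 °C: Candida in RPMI 1640/MOPS pH 6.0, 1.5×10^3 CFU/ml, 46-50 h; Staphylococcus in cation-adjusted Mueller-Hinton pH 7.3, 5.0×10^5 CFU/ml, 16-20 h. IC50 from curve fit; MIC is the lowest concentration with no growth; MFC/MBC from subculture.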

[6] = system: Cryptococcus neoformans ATCC 90113; assay: Antimicrobial microdilution assay against Cryptococcus neoformans (modified CLSI/NCCLS, optical density); assay type: cell-based; details: for X more potent than Amphotericin B: C. neoformans, ratio of molar IC50 to Amphotericin B; for C. neoformans IC50 / IC50: in vitro, C. neoformans ATCC 90113; for IC50: read-out: C. neoformans IC50 (mol/L)
Outline: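 Broth microdilution (modified CLSI) in RPMI pH 6.0, samples serially diluted in 20% DMSO/saline and tested in duplicate, growth followed by OD630 before and after incubation. MFC is the lowest concentration giving no growth when 5 μL from clear wells is plated on agar.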

[7] = system: C. glabrata ATCC 90030; assay: Antifungal broth dilution assay against C. glabrata (modified CLSI); assay type: cell-based, Candida glabrata; details: for C. glabrata IC50 / IC50: in vitro; for IC50: converted with molecular weight; for X more potent than Amphotericin B: molar IC50 ratio versus amphotericin B
Outline: as §2

Molecule	X more potent than Pentamidine [1]	L. donovani IC50 [1] [µg/mL]	IC50 [1] [µM]	P. falciparum W2 IC50 [2] [µg/mL]	IC50 [2] [µM]	X more potent than chloroquine [2]	Effect at 72 h (%) ([3]; NTS S. mansoni at 10 μM)	Effect at 72 h (%) ([3]; NTS S. mansoni, 33 μM)	P. falciparum D6 IC50 [4] [µg/mL]	IC50 [4] [µM]	X more potent than chloroquine [4]	X more potent than Amphotericin B [5]	C. krusei IC50 [5] [µg/mL]	IC50 [5] [µM]	X more potent than Amphotericin B [6]	C. neoformans IC50 [6] [µg/mL]	IC50 [6] [µM]	also measured
[Cl-].[Cl-].[Fe+2].c1ccc(CN2CCCN3CCN(CCCN(Cc4ccccc4)CC3)CC2)cc1 [NS08, Fe(Bn2Bcyclam)Cl2]	1.66	1.71	3.21	0.2271	0.426	1.59	51.72	18.02	0.1726	0.324	0.11							
CC(=O)[O-].F[P-](F)(F)(F)(F)F.[Cu+2].c1ccc(CN2CCCN3CCN(CCCN(Cc4ccccc4)CC3)CC2)cc1 [RM37, [Cu(Bn2Bcyclam)(OAc)]PF6]	0.58	6.17	9.15	0.5451	0.809	0.84	24.14	100.00	0.2855	0.423	0.09							
CC(=O)[O-].F[P-](F)(F)(F)(F)F.[Ni+2].c1ccc(CN2CCCN3CCN(CCCN(Cc4ccccc4)CC3)CC2)cc1 [TC09, [Ni(Bn2Bcyclam)(OAc)]PF6]	0.55	6.51	9.73	0.8876	1.33	0.51		43.24	0.552	0.825	0.04	0.22	4.520	6.75				
[Mn(Bn1Me1-CB-Cyclam)Cl2] [NS11]				0.5300	1.16	0.58		5.41	0.6142	1.35	0.03				0.02	5.038	11	
CC(=O)[O-].F[P-](F)(F)(F)(F)F.[Zn+2].c1ccc(CN2CCCN3CCN(CCCN(Cc4ccccc4)CC3)CC2)cc1 [RM41, [Zn(Bn2Bcyclam)(OAc)]PF6]	0.38	9.51		0.4010		1.14	17.24	100.00	0.2315		0.11							
c1ccc(CN2CCCN3CCN(CCCN(Cc4ccccc4)CC3)CC2)cc1 [JGL45, Bn2Bcyclam]	0.55	3.94	9.69	0.1772	0.436	1.56	44.83	81.08	1.0894	2.68	0.01							
CC(=O)[O-].F[P-](F)(F)(F)(F)F.[Cu+2].c1ccc(CN2CCN3CCN(CC2)CCN(Cc2ccccc2)CC3)cc1 [RM58]				0.2015	0.312	2.18		5.41	0.0947	0.147	0.25							
CC(=O)[O-].CC(=O)[O-].CC(=O)[O-].F[P-](F)(F)(F)(F)F.F[P-](F)(F)(F)(F)F.F[P-](F)(F)(F)(F)F.[Co+2].[Co+2].[Co+2].c1c(CN2CCNCCN3CCN(CC3)CC2)cc(CN2CCNCCN3CCN(CC3)CC2)cc1CN1CCNCCN2CCN(CC2)CC1 [CDG021, [Co3(tris-SB-Cyclens)(OAc)3][PF6]3]								11.71				0.53	4.200	2.8	0.45	≤ 0.800	0.534	times more potent than AMB [7]: 2.66; C. glabrata IC50 [7]: 0.800 µg/mL; IC50 [7]: 0.534 µM; X more potent than Amphotericin B [7]: 2.66
c1ccc(CN2CCN3CCN(CC2)CCN(Cc2ccccc2)CC3)cc1 [ANC14, Bn2Bcyclen]	0.53	3.80	10	0.7602	2.01	0.34		43.24	0.5110	1.35	0.03							
CC(=O)[O-].CC(=O)[O-].CN1CCCN2CCN(CCCN(Cc3ccc(CN4CCCN5CCN(C)CCCN(CC5)CC4)cc3)CC2)CC1.F[P-](F)(F)(F)(F)F.F[P-](F)(F)(F)(F)F.[Cu+2].[Cu+2] [TJH384A, [Cu2(p-CB-cyclams)(OAc)2](PF6)2]								5.41				0.25	6.760	6.05	0.38	0.700	0.626	C. glabrata IC50 [7]: 14.590 µg/mL; IC50 [7]: 13.1 µM; X more potent than Amphotericin B [7]: 0.11
CC(=O)[O-].CN1CCCN2CCN(CCCN(Cc3ccccc3)CC2)CC1.F[P-](F)(F)(F)(F)F.[Cu+2] [RM56A, [Cu(Bn1Me1Bcyclam)(OAc)]PF6]	0.10	33.32	55.7	0.6747	1.13	0.60		18.02	0.7145	1.2	0.03							
CC(=O)[O-].CC(=O)[O-].CC(=O)[O-].CN1CCN2CCN(CC1)CCN(Cc1cc(CN3CCN4CCN(C)CCN(CC4)CC3)cc(CN3CCN4CCN(C)CCN(CC4)CC3)c1)CC2.F[P-](F)(F)(F)(F)F.F[P-](F)(F)(F)(F)F.F[P-](F)(F)(F)(F)F.F[P-](F)(F)(F)(F)F.F[P-](F)(F)(F)(F)F.F[P-](F)(F)(F)(F)F.[Co+3].[Co+3].[Co+3] [BNS20, [Co3(tris-CB-Cyclens)(OAc)3][PF6]6]								18.02					0.980	0.496	0.47	1.000	0.506	C. glabrata IC50 [7]: 4.720 µg/mL; IC50 [7]: 2.39 µM; X more potent than Amphotericin B [7]: 0.59
CN1CCN2CCN(CC1)CCN(Cc1cc(CN3CCN4CCN(C)CCN(CC4)CC3)cc(CN3CCN4CCN(C)CCN(CC4)CC3)c1)CC2 [BNS017, tris-CB-cyclens]	0.16	25.46	33.9					0.00				0.19	5.850	7.79	2.56	0.070	0.0932	
